# What was measured:
# URAT1EM = target: T1, URAT1EM (Homo sapiens, UniProt Q96S37, A280P/A304R/A323S/A335R/D313K/DEL311-312/DEL60-62/G295A/G309E/G331A/G338L/G65T/I63V/INS307H/L287I/L292P/L321M/L328V/L337V/L341F/L64S/M324V/M330S/M343V/P317I/P333E/Q332K/R291K/R301K/R325K/R342C/S329A/T288I/T289K/T314N/T339D/W294Q/W300R); assay: 14C-urate uptake in HEK293 cells expressing URAT1EM (cryo-EM construct); format: cell-based
# T1 construct: human URAT1 (residues 3–553), a (GGGGS)3 linker, and C-terminal DARPinoff7; expressed in transfected cells; host or cells: HEK293 cells (ATCC, CRL-3216), transient transfection
# T1 sequence (Q96S37 with tags, fused parts or gaps DEL60-62/I63V/L64S/G65T/A280P/L287I/T288I/T289K/R291K/L292P/W294Q/G295A/W300R/R301K/A304R/INS307H/G309E/DEL311-312/D313K/T314N/P317I/L321M/A323S/M324V/R325K/L328V/S329A/M330S/G331A/Q332K/P333E/A335R/L337V/G338L/T339D/L341F/R342C/M343V): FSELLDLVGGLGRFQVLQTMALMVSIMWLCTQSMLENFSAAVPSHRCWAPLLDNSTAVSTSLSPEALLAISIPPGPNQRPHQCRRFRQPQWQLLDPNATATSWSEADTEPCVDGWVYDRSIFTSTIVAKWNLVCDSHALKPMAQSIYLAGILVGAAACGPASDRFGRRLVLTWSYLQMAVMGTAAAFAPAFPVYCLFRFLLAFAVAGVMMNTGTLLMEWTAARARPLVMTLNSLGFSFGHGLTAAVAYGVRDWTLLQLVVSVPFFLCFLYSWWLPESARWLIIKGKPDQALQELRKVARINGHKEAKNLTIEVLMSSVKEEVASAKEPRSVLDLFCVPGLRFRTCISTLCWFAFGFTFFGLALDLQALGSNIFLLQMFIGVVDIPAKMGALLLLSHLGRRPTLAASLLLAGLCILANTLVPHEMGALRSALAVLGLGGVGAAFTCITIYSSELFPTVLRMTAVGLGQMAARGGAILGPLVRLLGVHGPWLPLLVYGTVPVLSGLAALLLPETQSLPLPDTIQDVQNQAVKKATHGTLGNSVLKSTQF
# Method: (§1) Data are shown as mean ± SD; n = 3 biological replicates. In a, b, uptake buffer: 20 mM HEPES pH 7.4, 125 mM sodium gluconate, 4.8 mM potassium gluconate, 1.2 mM monobasic potassium phosphate, 1.2 mM magnesium sulfate, 1.3 mM calcium gluconate, and 5.6 mM glucose. c Cryo-EM density maps of URAT1 in the apo and substrate-bound states. […] Putative lipid densities are in light cyan. d Cryo-EM density maps of URAT1 in the drug-bound states. […] Putative lipid densities are in light cyan. e Diagram of URAT1 topology. ECD, extracellular domain. f Structure of URAT1 in the apo state. g Slice view of URAT1 in the apo state, showing the central cavity and opening to the intracellular side.
# (§2) Human embryonic kidney (HEK) 293 cells (ATCC, CRL-3216) were seeded onto poly(D-lysine)-coated 96-well plates at a density of 0.3 × 10^5 cells per well and cultured at 37 °C until reaching approximately 70%–80% confluence. The cells were transiently transfected with plasmids encoding the URAT1 WT or mutants using Lipofectamine 3000 (Invitrogen, L3000001), following the manufacturer’s protocol. The transfected cells were cultured at 37 °C for 12 h. Following this, 10 mM sodium butyrate was added, and the cells were further incubated at 30 °C for an additional 24 h. […]
# URAT1WT = target: T2, URAT1WT (Homo sapiens, UniProt Q96S37); assay: 14C-urate uptake inhibition in HEK293 cells expressing WT URAT1; format: cell-based
# T2 construct: expressed in transfected cells; host or cells: HEK293 cells (ATCC, CRL-3216), transient transfection with Lipofectamine 3000
# T2 sequence (Q96S37 1-553): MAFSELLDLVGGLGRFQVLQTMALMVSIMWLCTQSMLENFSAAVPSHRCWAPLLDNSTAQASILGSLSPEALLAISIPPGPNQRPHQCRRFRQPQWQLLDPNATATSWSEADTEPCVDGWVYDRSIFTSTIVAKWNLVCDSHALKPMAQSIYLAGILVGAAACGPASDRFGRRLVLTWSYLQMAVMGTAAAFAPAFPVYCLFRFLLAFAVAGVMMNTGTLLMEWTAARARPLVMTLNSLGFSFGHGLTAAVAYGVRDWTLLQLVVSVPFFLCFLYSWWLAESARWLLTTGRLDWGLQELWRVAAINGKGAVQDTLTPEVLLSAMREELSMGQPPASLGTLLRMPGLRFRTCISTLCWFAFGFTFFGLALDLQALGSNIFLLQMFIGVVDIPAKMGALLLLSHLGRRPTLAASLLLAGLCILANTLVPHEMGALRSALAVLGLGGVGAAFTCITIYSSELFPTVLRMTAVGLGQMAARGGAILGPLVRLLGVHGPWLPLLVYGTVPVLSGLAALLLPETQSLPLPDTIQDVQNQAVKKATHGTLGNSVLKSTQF
# Method: as §1, §2
compound,measurement,setting,value
O=C(c1cc(Cl)c(O)c(Cl)c1)N1CS(=O)(=O)c2ccccc21 [dotinurad],IC50,URAT1EM,190 nM
same,IC50,URAT1WT,170 nM
